Results as given in ChEMBL document CHEMBL1135154, “Optimization of the beta-aminoester class of factor Xa inhibitors. Part 1: P(4) and side-chain modifications for improved in vitro potency” (Bioorg Med Chem Lett, 2002).

What was measured:
Serine protease 1 = Serine protease 1 (Homo sapiens, UniProt P07477); experiment: In vitro inhibitory activity against human trypsin
Coagulation factor X = Coagulation factor X (Homo sapiens, UniProt P00742); experiment: In vitro inhibitory activity against human Coagulation factor Xa
Prothrombin [1] = target: T1, Prothrombin (Homo sapiens, UniProt P00734); experiment: In vitro inhibitory activity against human Coagulation factor IIa
[2] = Activated partial thromboplastin times (APTT) was determined in rat plasma; assay type: functional
[3] = Activated partial thromboplastin times (APTT) was determined in human plasma; assay type: functional
Prothrombin [4] = target: T1, Prothrombin; experiment: Ratio of human Coagulation factor IIa to that of human Coagulation factor Xa was evaluated
[5] = Activated partial thromboplastin times (APTT) was determined int human plasma; assay type: functional

Coagulation factor X, sequence (P00742 41-179 limits assumed): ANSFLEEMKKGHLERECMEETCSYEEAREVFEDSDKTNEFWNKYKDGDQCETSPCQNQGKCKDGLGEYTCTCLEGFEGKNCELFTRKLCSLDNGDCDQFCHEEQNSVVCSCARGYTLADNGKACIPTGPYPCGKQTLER
Coagulation factor X, sequence (P00742 235-488 limits assumed): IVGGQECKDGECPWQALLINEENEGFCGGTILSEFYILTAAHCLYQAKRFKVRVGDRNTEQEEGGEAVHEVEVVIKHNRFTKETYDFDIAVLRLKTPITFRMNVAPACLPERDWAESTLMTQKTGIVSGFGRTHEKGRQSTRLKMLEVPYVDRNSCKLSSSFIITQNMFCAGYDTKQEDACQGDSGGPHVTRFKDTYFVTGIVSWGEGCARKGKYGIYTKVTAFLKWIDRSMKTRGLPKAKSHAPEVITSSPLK
Serine protease 1, sequence (P07477 whole entry): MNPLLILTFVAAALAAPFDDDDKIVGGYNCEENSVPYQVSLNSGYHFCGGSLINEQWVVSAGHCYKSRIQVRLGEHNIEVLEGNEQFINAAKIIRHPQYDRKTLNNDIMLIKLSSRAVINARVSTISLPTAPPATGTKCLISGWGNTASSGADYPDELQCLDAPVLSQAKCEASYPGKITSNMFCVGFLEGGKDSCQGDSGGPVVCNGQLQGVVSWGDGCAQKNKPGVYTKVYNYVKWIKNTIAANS

| Ki (Serine protease 1) | Ki (Coagulation factor X) | Ki (Prothrombin [1]) | Ki ratio (IIa/Xa) (Prothrombin [4]) | Structure (SMILES) | APTT [2] | APTT [3] | APTT [5] |
| --- | --- | --- | --- | --- | --- | --- | --- |
| > 2.9 µM | > 1.2 µM | > 4 µM | – | CCOC(=O)NCc1cccc(-c2ccc(C(=O)N[C@H](C)[C@@H](Cc3cccc(C(=N)N)c3)C(=O)OC)cc2)c1 | – | – | – |
| 0.23 µM | 0.02 µM | > 3.95 µM | – | COC(=O)[C@@H](CNC(=O)c1ccc(-c2ccccc2)cc1)Cc1cccc(C(=N)N)c1 | – | – | – |
| – | 0.0094 µM | 0.954 µM | – | COC(=O)[C@H](Cc1cccc(C(=N)N)c1)[C@@H](/C=C/c1ccccc1)NC(=O)c1ccc(-c2ccccc2)cc1 | – | – | – |
| 0.075 µM | 0.011 µM | 0.709 µM | – | COC(=O)[C@H](Cc1cccc(C(=N)N)c1)[C@@H](Cc1ccccc1)NC(=O)c1ccc(-c2ccccc2)cc1 | – | – | – |
| 0.09 µM | – | > 4 µM | – | COC(=O)[C@H](Cc1cccc(C(=N)N)c1)[C@@H](C)NC(=O)c1ccc(-c2cccc(C(N)=O)c2)cc1 | – | – | – |
| 0.3 µM | 0.008 µM | > 3.95 µM | – | COC(=O)[C@H](Cc1cccc(C(=N)N)c1)[C@H](NC(=O)c1ccc(-c2cccc(CN)c2)cc1)C(C)C | – | – | – |
| 0.038 µM | 0.0004 µM | 0.99 µM | – | COC(=O)[C@H](Cc1cccc(C(=N)N)c1)[C@@H](CC(C)C)NC(=O)c1ccc(-c2cccc(CN)c2)cc1 | – | – | – |
| 0.069 µM | 0.0053 µM | – | ~3250 | COC(=O)[C@H](Cc1cccc(C(=N)N)c1)[C@@H](C)NC(=O)c1ccc(-c2ccccc2)cc1 | 5.05 µM | 3.9 µM | – |
| 0.036 µM | 0.004 µM | 0.65 µM | – | COC(=O)[C@H](Cc1cccc(C(=N)N)c1)[C@@H](CC1CCCCC1)NC(=O)c1ccc(-c2cccc(CN)c2)cc1 | – | – | – |
| 0.042 µM | 0.002 µM | > 4 µM | – | COC(=O)[C@H](Cc1cccc(C(=N)N)c1)[C@@H](C)NC(=O)c1ccc(-c2ccc(C(N)=O)cc2)cc1 | – | – | – |
| 0.067 µM | 0.021 µM | 0.81 µM | – | COC(=O)[C@H](Cc1cccc(C(=N)N)c1)[C@@H](CCc1ccccc1)NC(=O)c1ccc(-c2ccccc2)cc1 | – | – | – |
| – | 0.069 µM | > 4 µM | – | COC(=O)[C@H](Cc1cccc(C(=N)N)c1)[C@@H](C)NC(=O)c1ccc(-c2ccc(C(=O)O)cc2)cc1 | – | – | – |
| 0.095 µM | 0.001 µM | 2.66 µM | – | COC(=O)[C@H](Cc1cccc(C(=N)N)c1)[C@@H](C)NC(=O)c1ccc(-c2cccc(CN(C)C)c2)cc1 | – | – | – |
| 0.069 µM | – | – | – | COC(=O)[C@H](Cc1cccc(C(=N)N)c1)[C@@H](C)NC(=O)c1ccc(-c2cccc(CN)c2)cc1 | 1.7 µM | – | 0.33 µM |
| 0.063 µM | 0.0007 µM | 2.1 µM | – | CC[C@@H](NC(=O)c1ccc(-c2cccc(CN)c2)cc1)[C@@H](Cc1cccc(C(=N)N)c1)C(=O)OC | – | – | – |
